The record followed here is US8937092B2, “Aryl or N-heteroaryl substituted methanesulfonamide derivatives as vanilloid receptor ligands” (Gruenenthal GmbH, priority 2011, dated 2015).

One experiment concerns the target vanilloid receptor 1 (VR1/TRPV1 receptor) (Homo sapiens, UniProt Q8NER1). As to the kind of experiment: Functional FLIPR Ca2+ influx assay on vanilloid receptor 1, capsaicin (Cap) stimulus. Type of experiment: cell-based. To be noted: Ki from IC50 by Cheng-Prusoff, read-out: (f) Ki (human being) [nM], Cap. The procedure: Furthermore, preference may be given to compounds according to the invention that cause a 50 percent displacement of capsaicin, which is present at a concentration of 100 nM, in a FLIPR assay with CHO K1 cells which were transfected with the human VR1 gene at a concentration of less than 2,000 nM, preferably less than 1,000 nM, particularly preferably less than 300 nM, most particularly preferably less than 100 nM, even more preferably less than 75 nM, additionally preferably less than 50 nM, most preferably less than 10 nM.
In the process, the Ca^2+ influx is quantified in the FLIPR assay with the aid of a Ca^2+-sensitive dye (type Fluo-4, Molecular Probes Europe BV, Leiden, the Netherlands) in a fluorescent imaging plate reader (FLIPR, Molecular Devices, Sunnyvale, USA), as described hereinafter.
Pharmacological Methods I. Functional Testing Carried Out on the Vanilloid Receptor 1 (VRI/TRPV1 Receptor) […]
The number of cells in the suspension is set to 3×10^5 per mL and 150 μL of this suspension are in each case introduced into a recess in the cell culture plates coated as described hereinbefore. In the incubator the plates are left for two to three days at 37° C., 5% by volume of CO2 and 95% relative humidity. Subsequently, the cells are loaded with 2 μM of Fluo-4 and 0.01% by volume of Pluronic F127 (Molecular Probes Europe BV, Leiden, the Netherlands) in HBSS buffer (Hank's buffered saline solution, Gibco Invitrogen GmbH, Karlsruhe, Germany) for 30 min at 37° C., washed 3 times with HBSS buffer and after further incubation for 15 minutes at room temperature used for Ca^2+ measurement in a FLIPR assay. The Ca^2+-dependent fluorescence is in this case measured before and after the addition of substances (λex=488 nm, λem=540 nm). Quantification is carried out by measuring the highest fluorescence intensity (FC, fluorescence counts) over time.
The FLIPR protocol consists of 2 substance additions. First the compounds to be tested (10 μM) are pipetted onto the cells and the Ca^2+ influx is compared with the control (capsaicin 10 μM). This provides the result in % activation based on the Ca^2+ signal after the addition of 10 μM of capsaicin (CP). After 5 minutes' incubation, 100 nM of capsaicin are applied and the Ca^2+ influx is also determined.
Desensitising agonists and antagonists lead to suppression of the Ca^2+ influx. The % inhibition is calculated compared to the maximum achievable inhibition with 10 μM of capsazepine.
Triple analyses (n=3) are carried out and repeated in at least 3 independent experiments (N=4).
Starting from the percentage displacement caused by different concentrations of the compounds to be tested of general formula I, IC50 inhibitory concentrations which cause a 50-percent displacement of capsaicin were calculated. K, values for the test substances were obtained by conversion by means of the Cheng-Prusoff equation (Cheng, Prusoff; Biochem. Pharmacol. 22, 3099-3108, 1973).
The affinity of the compounds according to the invention for the vanilloid receptor 1 (VR1/TRPV1 receptor) was determined as described herein before (pharmacological method I).
The value after the “@” symbol indicates the concentration at which the inhibition (as a percentage) was respectively determined.
As for `Cc1cccc(-c2nc(C(F)(F)F)ccc2CNC(=O)Nc2ccc(CNS(N)(=O)=O)c(F)c2)c1` [Example 86, 1-{3-fluoro-4-[(sulfamoylamino)methyl]phenyl}-3-{[2-m-tolyl-6-(trifluoromethyl)pyridin-3-yl]methyl}urea], the Ki (commonly the dissociation constant of the complex between target and ligand, obtained from inhibition or displacement) is 6 nM.
Same read-out and setting: under `Cc1cc(-c2nc(C(F)(F)F)ccc2CNC(=O)C(C)c2ccc(CNS(C)(=O)=O)c(F)c2)ccc1C#N` (stereo not drawn) [Example 39, N-((2-(4-cyano-3-methylphenyl)-6-(trifluoromethyl)pyridin-3-yl)methyl)-2-(3-fluoro-4-(methylsulfonamidomethyl)phenyl)propanamide] stands 66 nM; under `CC(C(=O)NCc1ccc(C(F)(F)F)nc1-c1cncc(Cl)c1)c1ccc(CNS(C)(=O)=O)c(F)c1` (stereo not drawn) [Example 73, N-((5′-chloro-6-(trifluoromethyl)-2,3′-bipyridin-3-yl)methyl)-2-(3-fluoro-4-(methylsulfonamidomethyl)phenyl)propanamide], 24 nM.
The same measure, in the same setting: under `Cc1ccc(-c2nc(C(F)(F)F)ccc2CNC(=O)C(C)c2ccc(CNS(C)(=O)=O)c(F)c2)cc1` (stereo not drawn) [Example 29, 2-(3-fluoro-4-(methylsulfonamidomethyl)phenyl)-N-((2-p-tolyl-6-(trifluoromethyl)pyridin-3-yl)methyl)propanamide] stands 32 nM.
Still for that read-out and setting: under `COc1cc(C(C)C(=O)NCc2ccc(C(F)(F)F)nc2-c2cccc(C)c2)ccc1CNS(C)(=O)=O` (stereo not drawn) [Example 78, 2-(3-methoxy-4-(methylsulfonamidomethyl)phenyl)-N-((2-m-tolyl-6-(trifluoromethyl)pyridin-3-yl)methyl)propanamide] stands 73 nM; under `CCOc1cccc(-c2nc(C(F)(F)F)ccc2CNC(=O)C(C)c2ccc(CNS(C)(=O)=O)c(F)c2)c1` (stereo not drawn) [Example 64, N-((2-(3-ethoxyphenyl)-6-(trifluoromethyl)pyridin-3-yl)methyl)-2-(3-fluoro-4-(methylsulfonamidomethyl)phenyl)propanamide], 28 nM.
For `Cc1cccc(-c2nc(C(F)(F)F)ccc2CNC(=O)Nc2ccc(CNS(C)(=O)=O)cc2)c1` [Example 2, N-(4-(3-((2-m-tolyl-6-(trifluoromethyl)pyridin-3-yl)methyl)ureido)benzyl)methanesulfonamide], the Ki came out at 10 nM.
On the same count and under the same terms, under `COc1ccc(-c2nc(C(F)(F)F)ccc2CNC(=O)C(C)c2ccc(CNS(C)(=O)=O)c(F)c2)cc1C` (stereo not drawn) [Example 43, 2-(3-fluoro-4-(methylsulfonamidomethyl)phenyl)-N-((2-(4-methoxy-3-methylphenyl)-6-(trifluoromethyl)pyridin-3-yl)methyl)propanamide] stands 35 nM; under `Cc1cccc(-c2nc(C(F)(F)F)ccc2CNC(=O)C(C)c2ccc(CNS(N)(=O)=O)cc2)c1` (stereo not drawn) [Example 88, 2-(4-((sulfamoylamino)methyl)phenyl)-N-((2-m-tolyl-6-(trifluoromethyl)pyridin-3-yl)methyl)propanamide], 7 nM.
Still for that read-out and setting: as for `Cc1ccc(-c2nc(C(F)(F)F)ccc2CNC(=O)C(C)c2ccc(CNS(C)(=O)=O)c(F)c2)cc1C` (stereo not drawn) [Example 31, N-((2-(3,4-dimethylphenyl)-6-(trifluoromethyl)pyridin-3-yl)methyl)-2-(3-fluoro-4-(methylsulfonamidomethyl)phenyl)propanamide], the figure is 28 nM; as for `CCOc1ccc(-c2nc(C(F)(F)F)ccc2CNC(=O)C(C)c2ccc(CNS(C)(=O)=O)c(F)c2)cc1C` (stereo not drawn) [Example 46, N-((2-(4-ethoxy-3-methylphenyl)-6-(trifluoromethyl)pyridin-3-yl)methyl)-2-(3-fluoro-4-(methylsulfonamidomethyl)phenyl)propanamide], 12 nM.
Same read-out and setting: as for `Cc1cccc(-c2nc(C(F)(F)F)ccc2CNC(=O)C(C)c2ccc(CNS(C)(=O)=O)c(Cl)c2)c1` (stereo not drawn) [Example 77, 2-(3-chloro-4-(methylsulfonamidomethyl)phenyl)-N-((2-m-tolyl-6-(trifluoromethyl)pyridin-3-yl)methyl)propanamide], the figure is 3 nM.
Consider `CC(C(=O)NCc1ccc(C(F)(F)F)nc1-c1cccc(C#N)c1)c1ccc(CNS(C)(=O)=O)c(F)c1` (stereo not drawn) [Example 57, N-((2-(3-cyanophenyl)-6-(trifluoromethyl)pyridin-3-yl)methyl)-2-(3-fluoro-4-(methylsulfonamidomethyl)phenyl)propanamide], for which the Ki was 74 nM.
`Cc1cccc(-c2nc(C(F)(F)F)ccc2CNC(=O)Nc2ccc(CNS(N)(=O)=O)cc2)c1` [Example 84, 1-{[2-m-tolyll-6-(trifluoromethyl)pyridin-3-yl]methyl}-3-{4-[(sulfamoylamino)methyl]phenyl}urea]: the inhibition constant (Ki) was 9 nM.
Still for that read-out and setting: under `CCOc1cc(C)cc(-c2nc(C(F)(F)F)ccc2CNC(=O)C(C)c2ccc(CNS(C)(=O)=O)c(F)c2)c1` (stereo not drawn) [Example 47, N-((2-(3-ethoxy-5-methylphenyl)-6-(trifluoromethyl)pyridin-3-yl)methyl)-2-(3-fluoro-4-(methylsulfonamidomethyl)phenyl)propanamide] stands 37 nM.
On the same count and under the same terms, as for `Cc1cc(-c2nc(C(F)(F)F)ccc2CNC(=O)C(C)c2ccc(CNS(C)(=O)=O)c(F)c2)ccc1F` (stereo not drawn) [Example 35, N-((2-(4-fluoro-3-methylphenyl)-6-(trifluoromethyl)pyridin-3-yl)methyl)-2-(3-fluoro-4-(methylsulfonamidomethyl)phenyl)propanamide], the figure is 7 nM; as for `CC(C(=O)NCc1ccc(C(F)(F)F)nc1-c1cccc(C(F)F)c1)c1ccc(CNS(C)(=O)=O)c(F)c1` (stereo not drawn) [Example 52, N-((2-(3-(difluoromethyl)phenyl)-6-(trifluoromethyl)pyridin-3-yl)methyl)-2-(3-fluoro-4-(methylsulfonamidomethyl)phenyl)propanamide], 7 nM; as for `COc1c(C)cccc1-c1nc(C(F)(F)F)ccc1CNC(=O)C(C)c1ccc(CNS(C)(=O)=O)c(F)c1` (stereo not drawn) [Example 42, 2-(3-fluoro-4-(methylsulfonamidomethyl)phenyl)-N-((2-(2-methoxy-3-methylphenyl)-6-(trifluoromethyl)pyridin-3-yl)methyl)propanamide], 65 nM.

The experiment is the same for the next values; noted with them: inhibition at 1 μM.
“N-((2-(2-ethoxy-5-methylphenyl)-6-(trifluoromethyl)pyridin-3-yl)methyl)-2-(3-fluoro-4-(methylsulfonamidomethyl)phenyl)propanamide [Example 48]”: the “(f) inhibition (human being), Cap, @1 μM” value is recorded as 15%@1 μM.

Still in this experiment, the particulars now being: inhibition at 5 μM, read-out: (f) inhibition (human being), Cap, @5 μM.
For the molecule `Cc1ccc(-c2nc(C(F)(F)F)ccc2CNC(=O)C(C)c2ccc(CNS(C)(=O)=O)c(F)c2)cn1` (stereo not drawn) [Example 72, 2-(3-fluoro-4-(methylsulfonamidomethyl)phenyl)-N-((6′-methyl-6-(trifluoromethyl)-2,3′-bipyridin-3-yl)methyl)propanamide], the inhibition – broadly, how much of the control response was suppressed – at 5 µM is 27%.
Still for that read-out and setting: as for `Cc1cccc(-c2nc(C(F)(F)F)ccc2CNC(=O)C(C)c2cccc(CNS(C)(=O)=O)c2)c1` (stereo not drawn) [Example 1, 2-(3-(methylsulfonamidomethyl)phenyl)-N-((2-m-tolyl-6-(trifluoromethyl)pyridin-3-yl)methyl)propanamide], the figure is 44%.
On the same count and under the same terms, as for `C[C@@H](C(=O)NCc1ccc(C(F)(F)F)nc1-c1ccc(F)c(Cl)c1)c1ccc(CNS(C)(=O)=O)c(F)c1` [Example 18, (R)—N-((2-(3-chloro-4-fluorophenyl)-6-(trifluoromethyl)pyridin-3-yl)methyl)-2-(3-fluoro-4-(methylsulfonamidomethyl)phenyl)propanamide], the figure is 42%; as for `COc1cncc(-c2nc(C(F)(F)F)ccc2CNC(=O)C(C)c2ccc(CNS(C)(=O)=O)c(F)c2)c1` (stereo not drawn) [Example 69, 2-(3-fluoro-4-(methylsulfonamidomethyl)phenyl)-N-((5′-methoxy-6-(trifluoromethyl)-2,3′-bipyridin-3-yl)methyl)propanamide], 49%; as for `CC(C(=O)NCc1ccc(C(F)(F)F)nc1-c1cccnc1)c1ccc(CNS(C)(=O)=O)c(F)c1` (stereo not drawn) [Example 67, 2-(3-fluoro-4-(methylsulfonamidomethyl)phenyl)-N-((6-(trifluoromethyl)-2,3′-bipyridin-3-yl)methyl)propanamide], 15%.
